Results from PubChem BioAssay (NCI).
“And” between values parts separate entries of the source, which are not always exact repeats. Equal values may be shown once.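 Test compounds were applied to cells in 96-well plates for 48 hours at 5 doses. GI50 marks 50% less growth. TGI denotes the concentration required for complete inhibition of growth.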

Columns and labels:
Test in all cases: NCI-60 cell line screen, 48 h
CAKI-1 renal = test system: CAKI-1 renal
ACHN renal = test system: ACHN renal
HOP-18 NSCLC = test system: HOP-18 NSCLC
DMS 114 small cell lung = test system: DMS 114 small cell lung
SF-539 CNS = test system: SF-539 CNS
UO-31 renal = test system: UO-31 renal
HOP-62 NSCLC = test system: HOP-62 NSCLC
SK-MEL-2 melanoma = test system: SK-MEL-2 melanoma
HOP-92 NSCLC = test system: HOP-92 NSCLC
UACC-62 melanoma = test system: UACC-62 melanoma
DLD-1 colon = test system: DLD-1 colon
RPMI-8226 leukemia = test system: RPMI-8226 leukemia
HL-60(TB) leukemia = test system: HL-60(TB) leukemia
LXFL 529 NSCLC = test system: LXFL 529 NSCLC
M14 melanoma = test system: M14 melanoma
SK-OV-3 ovarian = test system: SK-OV-3 ovarian
EKVX NSCLC = test system: EKVX NSCLC
NCI-H23 lung = test system: NCI-H23 lung
OVCAR-3 ovarian = test system: OVCAR-3 ovarian
UACC-257 melanoma = test system: UACC-257 melanoma
HCT-15 colon = test system: HCT-15 colon
U251 CNS = test system: U251 CNS
SF-295 CNS = test system: SF-295 CNS
SR leukemia = test system: SR leukemia
NCI-H226 lung = test system: NCI-H226 lung
SN12C renal = test system: SN12C renal
XF 498 CNS = test system: XF 498 CNS
MALME-3M melanoma = test system: MALME-3M melanoma
MOLT-4 leukemia = test system: MOLT-4 leukemia
SW-620 colon = test system: SW-620 colon
CCRF-CEM leukemia = test system: CCRF-CEM leukemia
OVCAR-5 ovarian = test system: OVCAR-5 ovarian
NCI-H522 lung = test system: NCI-H522 lung
IGROV1 ovarian = test system: IGROV1 ovarian
HT29 colon = test system: HT29 colon
COLO 205 colon = test system: COLO 205 colon
786-0 renal = test system: 786-0 renal
A549 NSCLC = test system: A549 NSCLC
SNB-75 CNS = test system: SNB-75 CNS
SF-268 CNS = test system: SF-268 CNS
LOX IMVI melanoma = test system: LOX IMVI melanoma
HCT-116 colon = test system: HCT-116 colon
SK-MEL-5 melanoma = test system: SK-MEL-5 melanoma
A498 renal = test system: A498 renal
HCC-2998 colon = test system: HCC-2998 colon
DMS 273 small cell lung = test system: DMS 273 small cell lung
OVCAR-4 ovarian = test system: OVCAR-4 ovarian
SNB-19 CNS = test system: SNB-19 CNS
OVCAR-8 ovarian = test system: OVCAR-8 ovarian
M19-MEL melanoma = test system: M19-MEL melanoma
SNB-78 CNS = test system: SNB-78 CNS
SK-MEL-28 melanoma = test system: SK-MEL-28 melanoma
RXF 393 renal = test system: RXF 393 renal
K-562 leukemia = test system: K-562 leukemia
NCI-H460 lung = test system: NCI-H460 lung
TK-10 renal = test system: TK-10 renal
KM12 colon = test system: KM12 colon

`CC(=O)OC(C)(C)/C=C/C(=O)[C@](C)(O)[C@H]1[C@H](O)C[C@@]2(C)[C@@H]3CC=C4[C@@H](C[C@H](O)C(=O)C4(C)C)[C@]3(CO)C(=O)C[C@]12C` was tested, and the TGI (CAKI-1 renal) was 564 nM and 660 nM, the TGI (ACHN renal) was 882 nM and 844 nM and the GI50 (HOP-18 NSCLC) was 216 nM. The TGI (HOP-18 NSCLC) was 646 nM and 1320 nM, the GI50 (DMS 114 small cell lung) was 248 nM and the TGI (DMS 114 small cell lung) was 15300 nM. For the same compound, the GI50 (SF-539 CNS) was 173 nM, the TGI (SF-539 CNS) was 658 nM and 472 nM and the GI50 (UO-31 renal) was 251 nM. The TGI (UO-31 renal) was 883 nM and 565 nM, the TGI (HOP-62 NSCLC) was 528 nM and 482 nM and the GI50 (SK-MEL-2 melanoma) was 33.9 nM. For the same compound, the TGI (SK-MEL-2 melanoma) was 416 nM and 104 nM, the GI50 (HOP-92 NSCLC) was 282 nM and the TGI (HOP-92 NSCLC) was 435 nM and 454 nM. The GI50 (UACC-62 melanoma) was 127 nM, the TGI (UACC-62 melanoma) was 15800 nM and the GI50 (DLD-1 colon) was 216 nM. It also gave a TGI (DLD-1 colon) of 15000 nM, a GI50 (RPMI-8226 leukemia) of 356 nM and a TGI (RPMI-8226 leukemia) of 2280 nM. For the same compound, the GI50 (HL-60(TB) leukemia) was 300 nM, the TGI (HL-60(TB) leukemia) was 922 nM and 1330 nM and the GI50 (LXFL 529 NSCLC) was 90 nM. The TGI (LXFL 529 NSCLC) was 6620 nM, the GI50 (M14 melanoma) was 85.7 nM and the TGI (M14 melanoma) was 4120 nM. The GI50 (SK-OV-3 ovarian) was 333 nM, the GI50 (EKVX NSCLC) was 432 nM and the TGI (EKVX NSCLC) was 903 nM and 7310 nM. For the same compound, the GI50 (NCI-H23 lung) was 621 nM, the TGI (NCI-H23 lung) was 14700 nM and the GI50 (OVCAR-3 ovarian) was 273 nM. For the same compound, the TGI (OVCAR-3 ovarian) was 762 nM, the GI50 (UACC-257 melanoma) was 284 nM and the TGI (UACC-257 melanoma) was 943 nM and 6360 nM. It also gave a GI50 (HCT-15 colon) of 351 nM, a TGI (HCT-15 colon) greater than 100000 nM and a GI50 (U251 CNS) of 267 nM. The TGI (U251 CNS) was 592 nM and 1520 nM, the TGI (SF-295 CNS) was 772 nM and 1640 nM and the GI50 (SR leukemia) was 462 nM. For the same compound, the TGI (SR leukemia) was 29400 nM, the GI50 (NCI-H226 lung) was 290 nM and the TGI (NCI-H226 lung) was 776 nM and 293 nM. It also gave a GI50 (SN12C renal) of 368 nM, a TGI (SN12C renal) of 17400 nM and a GI50 (XF 498 CNS) of 108 nM. For the same compound, the TGI (XF 498 CNS) was 665 nM and 209 nM, the GI50 (MALME-3M melanoma) was 83.8 nM and the TGI (MALME-3M melanoma) was 936 nM and 4690 nM. It also gave a TGI (MOLT-4 leukemia) of 58300 nM, a GI50 (SW-620 colon) of 159 nM and a TGI (SW-620 colon) of 20000 nM. The GI50 (CCRF-CEM leukemia) was 95.9 nM, the TGI (CCRF-CEM leukemia) was 960 nM and 2620 nM and the GI50 (OVCAR-5 ovarian) was 730 nM. For the same compound, the TGI (OVCAR-5 ovarian) was 41000 nM, the GI50 (NCI-H522 lung) was 112 nM and the TGI (NCI-H522 lung) was 855 nM and 675 nM. For the same compound, the GI50 (IGROV1 ovarian) was 463 nM, the TGI (IGROV1 ovarian) was 907 nM and 2890 nM and the GI50 (HT29 colon) was 276 nM. For the same compound, the GI50 (COLO 205 colon) was 159 nM, the GI50 (786-0 renal) was 200 nM and the TGI (786-0 renal) was 889 nM and 475 nM. It also gave a GI50 (A549 NSCLC) of 273 nM, a TGI (A549 NSCLC) of 22600 nM and a GI50 (SNB-75 CNS) of 52.9 nM. The TGI (SNB-75 CNS) was 375 nM and 211 nM, the GI50 (SF-268 CNS) was 362 nM and the TGI (SF-268 CNS) was 971 nM and 1290 nM. For the same compound, the GI50 (LOX IMVI melanoma) was 99.9 nM, the TGI (LOX IMVI melanoma) was 492 nM and 455 nM and the GI50 (HCT-116 colon) was 236 nM. The TGI (HCT-116 colon) was 10000 nM, the GI50 (SK-MEL-5 melanoma) was 171 nM and the TGI (SK-MEL-5 melanoma) was 894 nM and 1330 nM. For the same compound, the GI50 (A498 renal) was 79.1 nM, the TGI (A498 renal) was 431 nM and 213 nM and the TGI (HCC-2998 colon) was 15100 nM. The GI50 (DMS 273 small cell lung) was 324 nM, the TGI (DMS 273 small cell lung) was 771 nM and the GI50 (OVCAR-4 ovarian) was 295 nM. For the same compound, the TGI (OVCAR-4 ovarian) was 835 nM, the GI50 (SNB-19 CNS) was 213 nM and the TGI (SNB-19 CNS) was 580 nM and 559 nM. The TGI (OVCAR-8 ovarian) was 23800 nM, the GI50 (M19-MEL melanoma) was 298 nM and the TGI (M19-MEL melanoma) was 29900 nM. The GI50 (SNB-78 CNS) was 269 nM, the TGI (SNB-78 CNS) was 983 nM and 3920 nM and the GI50 (SK-MEL-28 melanoma) was 34 nM. For the same compound, the TGI (SK-MEL-28 melanoma) was 697 nM and 254 nM, the TGI (RXF 393 renal) was 405 nM and 458 nM and the GI50 (K-562 leukemia) was 164 nM. It also gave a TGI (K-562 leukemia) of 29500 nM, a GI50 (NCI-H460 lung) of 407 nM and a TGI (NCI-H460 lung) of 17900 nM. For the same compound, the GI50 (TK-10 renal) was 251 nM, the TGI (TK-10 renal) was 318 nM and 512 nM and the GI50 (KM12 colon) was 703 nM. The TGI (KM12 colon) was 32700 nM.
